In PubChem BioAssay (NCI):
“And” between values parts separate entries of the source, which are not always exact repeats. Identical values can stand only once.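 Tested at 5 concentrations; 48 h exposure; 96-well plates; endpoints linearly interpolated, else capped at highest concentration. Abbreviation: GI50, concentration required for 50% inhibition of growth. TGI is the concentration that stops growth completely.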

How the values were obtained:
Assay in all cases: growth of human tumour cells (NCI), 48 h
[1] = tested on: A498 renal
[2] = tested on: A549 NSCLC
[3] = tested on: K-562 leukemia
[4] = tested on: MALME-3M melanoma
[5] = tested on: MDA-MB-435
[6] = tested on: NCI-H460 lung
[7] = tested on: RPMI-8226 leukemia
[8] = tested on: SF-268 CNS
[9] = tested on: T-47D breast
[10] = tested on: UACC-62 melanoma

## COc1cc(/C=C/c2ccnc3ccccc23)cc(OC)c1OC
[1]
  GI50: 1.6 µM
  TGI: 8.91 µM and 5.87 µM
[2]
  GI50: 3.39 µM
  TGI: 31.1 µM and > 100 µM
[3]
  GI50: 0.746 µM
  TGI: > 100 µM
[4]
  GI50: 3.88 µM
  TGI: 42.5 µM and > 100 µM
[5]
  GI50: 0.355 µM
  TGI: 1.87 µM and 1.85 µM
[6]
  GI50: 2.94 µM
  TGI: 15.8 µM and 15 µM
[7]
  GI50: 6.55 µM
[8]
  TGI: 19.8 µM and 47.6 µM
[9]
  GI50: 6.58 µM
  TGI: 80.4 µM and > 100 µM
[10]
  TGI: 30.7 µM and > 100 µM

## C[C@@H](Oc1cc(-c2cnn(C3CCNCC3)c2)cnc1N)c1c(Cl)cc(F)cc1Cl
[1]
  GI50: 1.3 µM
  TGI: 3.82 µM
[2]
  GI50: 1.14 µM
  TGI: 11.3 µM
[3]
  GI50: 0.229 µM
  TGI: 3.88 µM
[4]
  GI50: 1.27 µM
  TGI: 2.94 µM
[5]
  GI50: 0.749 µM
  TGI: 9.42 µM
[6]
  GI50: 0.902 µM
  TGI: 5.4 µM
[7]
  GI50: 2.41 µM
  TGI: 8.6 µM
[8]
  GI50: 3.05 µM
  TGI: 12.1 µM
[9]
  GI50: 1.74 µM
  TGI: 4.58 µM
[10]
  GI50: 1.61 µM
  TGI: 3.65 µM

## c1ccc2c(c1)[nH]c1c3ccccc3sc21
[1]
  TGI: > 100 µM
[2]
  TGI: > 100 µM
[3]
  TGI: > 100 µM
[4]
  TGI: > 100 µM
[5]
  TGI: > 100 µM
[6]
  TGI: > 100 µM
[7]
  TGI: > 100 µM
[8]
  TGI: > 100 µM
[9]
  TGI: > 100 µM
[10]
  TGI: > 100 µM

## Cc1cc(OCc2nn(CN3CCN(C)CC3)c(=S)n2/N=C/c2ccc(F)cc2)ccc1Cl
[1]
  GI50: 16.8 µM
  TGI: 31.3 µM
[2]
  GI50: 16.9 µM
  TGI: 31.3 µM
[3]
  GI50: 19.2 µM
  TGI: 41.7 µM
[4]
  GI50: 22.8 µM
  TGI: 43.4 µM
[5]
  GI50: 18 µM
  TGI: 36.2 µM
[6]
  GI50: 17 µM
  TGI: 31.8 µM
[7]
  GI50: 16.8 µM
  TGI: 40.7 µM
[8]
  GI50: 19.6 µM
  TGI: 38 µM
[9]
  GI50: 17 µM
  TGI: 39.7 µM
[10]
  GI50: 17.4 µM
  TGI: 31.6 µM

## O=c1[nH]c2ccccc2n1C1CCN(CCOc2ccccc2)CC1
[1]
  GI50: 17.1 µM
  TGI: 99.6 µM
[2]
  GI50: 58.3 µM
  TGI: > 100 µM
[3]
  GI50: 6.85 µM
  TGI: > 100 µM
[4]
  GI50: 51.5 µM
  TGI: > 100 µM
[5]
  GI50: 6.75 µM
  TGI: 72.3 µM
[6]
  GI50: 18.7 µM
  TGI: > 100 µM
[7]
  GI50: 9.28 µM
  TGI: > 100 µM
[8]
  GI50: 39.1 µM
  TGI: > 100 µM
[9]
  GI50: 15.7 µM
  TGI: > 100 µM
[10]
  GI50: 50.5 µM
  TGI: > 100 µM

## Nc1cc(N)c2nc(-c3ccccc3)c(NCc3ccc(Cl)c(Cl)c3)nc2c1
[1]
  GI50: 17.4 µM
  TGI: 32.4 µM
[2]
  GI50: 10.8 µM
  TGI: 27.4 µM
[3]
  GI50: 3.09 µM
  TGI: 17.8 µM
[4]
  GI50: 3.41 µM
  TGI: 13.8 µM
[5]
  GI50: 2.74 µM
  TGI: 7.56 µM
[6]
  GI50: 20.8 µM
  TGI: 46.9 µM
[7]
  GI50: 1.66 µM
  TGI: 3.72 µM
[8]
  GI50: 19.8 µM
  TGI: 55.2 µM
[9]
  GI50: 19.4 µM
  TGI: 54.4 µM
[10]
  GI50: 14 µM
  TGI: 30.8 µM

## C1=C\CCCCN2CC[C@H]3[C@H](CCCC/C=C\CCCN4C[C@@H](CCCCC/1)C[C@@H]3C4)C2
[1]
  GI50: 6.31 µM
  TGI: 21.4 µM
[2]
  GI50: 12.1 µM
  TGI: 26.8 µM
[3]
  GI50: 2.37 µM
[4]
  GI50: 2.13 µM
  TGI: 5.43 µM
[5]
  GI50: 1.73 µM
  TGI: 3.26 µM
[6]
  GI50: 5.58 µM
  TGI: 18.1 µM
[7]
  GI50: 2.06 µM
  TGI: 6.16 µM
[8]
  GI50: 13.6 µM
  TGI: 26.8 µM
[9]
  GI50: 10 µM
  TGI: 27.4 µM
[10]
  GI50: 13.2 µM
  TGI: 25.9 µM

## CC(=N\O)/C(C)=N/O.CC(=N\O)/C(C)=N/O.[Fe].[NH2-].c1c[nH]cn1
[1]
  GI50: > 100 µM
  TGI: > 100 µM
[2]
  GI50: > 100 µM
  TGI: > 100 µM
[3]
  GI50: > 100 µM
  TGI: > 100 µM
[4]
  GI50: > 100 µM
  TGI: > 100 µM
[5]
  GI50: > 100 µM
  TGI: > 100 µM
[6]
  GI50: > 100 µM
  TGI: > 100 µM
[7]
  GI50: > 100 µM
  TGI: > 100 µM
[8]
  GI50: > 100 µM
  TGI: > 100 µM
[9]
  GI50: > 100 µM
  TGI: > 100 µM
[10]
  GI50: > 100 µM
  TGI: > 100 µM

## O=C(O)c1cc(Cl)cc(Cc2cc(Cl)cc(C(=O)O)c2O)c1O
[1]
  TGI: > 100 µM
[2]
  TGI: > 100 µM
[3]
  TGI: > 100 µM
[4]
  TGI: > 100 µM
[5]
  TGI: > 100 µM
[6]
  TGI: > 100 µM
[7]
  TGI: > 100 µM
[8]
  TGI: > 100 µM
[9]
  TGI: > 100 µM
[10]
  TGI: > 100 µM

## NC(Cc1c[nH]c2cccc(F)c12)C(=O)O (centres undefined)
[1]
  GI50: 1150 µM
  TGI: 3670 µM
[2]
  GI50: 98.7 µM and 679 µM
  TGI: > 4500 µM
[3]
  GI50: 68.5 µM and 269 µM
  TGI: > 4500 µM
[4]
  GI50: 2600 µM
  TGI: > 4500 µM
[5]
  GI50: 50.9 µM and 189 µM
  TGI: > 4500 µM
[6]
  GI50: 34.9 µM and 235 µM
  TGI: 2460 µM
[7]
  TGI: > 4500 µM
[8]
  GI50: 801 µM
  TGI: > 4500 µM
[9]
  TGI: > 4500 µM
[10]
  GI50: 582 µM
  TGI: 1990 µM
